Like-named read-outs stand apart in the source and are kept apart here.
Key:
[1] = tested on: methane production in ruminants; details: cited from earlier work
rumen methanogens = details: cited from earlier work
[2] = 3-NOP to adsorbent ratio study; type: physicochemical; details: 24 hr, HPLC
Protocol: Optimal loading of 3-NOP onto adsorbents was determined by varying ratios of 3-NOP to adsorbent. 3-NOP and adsorbent were speed mixed at 2000 rpm for 1 min at the following ratios by weight: 1:1.5, 1:2, 1:2.5. The adsorbed 3-NOP powder mixture was then placed in distilled water at 1% 3-NOP loading. The solution was allowed to equilibrate for 24 hr and then an aliquot was taken for HPLC to determine the reduction in 3-NOP concentration.

[3] = 3-NOP:Adsorbent 1:1.5, distilled water at 1% 3-NOP loading
[4] = 3-NOP:Adsorbent 1:2, distilled water at 1% 3-NOP loading
[5] = 3-NOP:Adsorbent 1:2.5, distilled water at 1% 3-NOP loading
[6] = beef cattle, fed at […] of DM intake

## O=[N+]([O-])CCO [2-nitroethanol]
[1]; 10 mmol/L
  Addition amount; maximum methane suppression amount: 96.7% (NEOH),

## CC(CO)[N+](=O)[O-] (stereo not drawn) [2-nitropropanol]
[1]; 10 mmol/L
  Addition amount; maximum methane suppression amount: 41.7% (NPOH)
Rumen methanogens; steers
  lowering of CH4 production: 37%

## N=C(N)NCCC[C@H](N)C(=O)O [Arginine]
[2]; [3]
  Average Integrated Area of 3-NOP in solution: 2406.0
[2]; [4]
  Average Integrated Area of 3-NOP in solution: 2372.8
[2]; [5]
  Average Integrated Area of 3-NOP in solution: 2435.2

## ClCBr [BCM, bromochloromethane]
Rumen methanogens; steers fed grain-based diets
  toxicity or residues in meat: no signs of toxicity or residues in meat

## O=C(O)/C=C/c1ccc(O)c(O)c1 [Caffeic acid]
[1]; 12 mM
  Addition amount; maximum methane suppression amount: 12 mM, Caffeic acid; 37.58%;

## N[C@@H](CCC(=O)O)C(=O)O [Glutamic acid]
[2]; [3]
  Average Integrated Area of 3-NOP in solution: 2445.9
[2]; [4]
  Average Integrated Area of 3-NOP in solution: 2452.5
[2]; [5]
  Average Integrated Area of 3-NOP in solution: 2446.3

## O=C(O)CC(O)C(=O)O (stereo not drawn) [Malate]
Rumen methanogens; [6]
  decrease of CH4 production: 16%
  reduction of CH4 per unit of DM intake: 9%

## O=[N+]([O-])O [Nitrate]
[1]; 5 mM (Liu et al., 2017)
  Addition amount; maximum methane suppression amount: 5 mM 43.26%
[1]; 5 mmol/L (Wu et al., 2019)
  Addition amount; maximum methane suppression amount: 5 mmol/L; 32.92%
[1]; 20 mg/g dry matter (Alvarez-Hess et al., 2019)
  Addition amount; maximum methane suppression amount: 20 mg/g dry matter; 21%

## ClC(Cl)Cl [chloroform]
Rumen methanogens; drenching to cattle
  duration of substantial inhibition of methanogenesis: up to 32 days

## CC[C@@]1([C@@H]2O[C@@H]([C@H]3O[C@@](O)(CO)[C@H](C)C[C@@H]3C)C[C@@H]2C)CC[C@H]([C@]2(C)CC[C@]3(C[C@H](O)[C@@H](C)[C@@H]([C@@H](C)[C@@H](OC)[C@H](C)C(=O)O)O3)O2)O1 [monensin]
[1]; 10-15 ppm
  CH4 suppression: no CH4 suppression was observed
[1]; fed at 24-35 mg/kg diet
  lowering of CH4 production (g/kg DM intake): up to 10%
Rumen methanogens; tropical cattle, 60 mg/day/cow
  CH4 production: did not lower CH4 production
Rumen methanogens; tropical cattle, 250 mg/day/cow, DM intake lowered
  decrease of CH4 production: about 30%

## O=C(O)/C=C/c1ccc(O)cc1 [p-coumaric acid]
[1]; 12 mM
  Addition amount; maximum methane suppression amount: p-coumaric acid; 28.33%

## Oc1ccc(C=Cc2cc(O)cc(O)c2)cc1 [resveratrol]
[1]; 25 mg, high-concentrate diets
  Addition amount; maximum methane suppression amount: high-concentrate diets; 41%
[1]; 25 mg, high-forage diets
  Addition amount; maximum methane suppression amount: 25 mg, high-forage diets; 60%;
